pIC50: −log10 of the molar value. Like-named read-outs stand apart in the source and are kept apart here.
What was measured:
[1] = system: MM.1S cells; assay: MM.1S cell proliferation inhibition (MTS assay); assay type: cell-based; details: Homo sapiens, MM1.S, 168 h, 7 days incubation, read-out: MM1.S (IC50, Inhibitory Activity of Compounds on MM.1S Cell Proliferation)
Method: The cell concentration was diluted according to a 7-day incubation period, and 180 µL of cell suspension was added to each well of a 96-well plate, with 20,000 cells per well. […] The test compounds were prepared from a 10 mM stock solution and serially diluted in a 5-fold gradient, and 20 µL of the diluted solution was added to each compound-treated well (final DMSO concentration also 0.2%). The cells were incubated in a 37 °C, 5% CO2 incubator for 7 days. After incubation, the reaction solution was prepared according to the MTS assay kit instructions (Promega, G5430), and 20 µL was added to each well. The plate was incubated at 37 °C with 5% CO2 for 3-4 hours. The absorbance at 490 nm was measured using a microplate reader, and the absorbance at 690 nm was used as the background value. […] The IC50 values for cell proliferation inhibition were determined using GraphPad Prism 5.0. Each experiment was repeated three times, and three parallel replicates were performed in each experiment to calculate the mean value and standard deviation.
Inhibitory Activity of Compounds on MM.1S Cell Proliferation

[2] = system: Mino cells; assay: Mino cell proliferation inhibition (MTS assay); assay type: cell-based; details: Homo sapiens, 72 h, 3 days incubation, read-out: Mino (IC50, Inhibitory Activity of Compounds on Mino Cell Proliferation)
Method: The cell concentration was diluted according to a 3-day incubation period, and 90 µL of cell suspension was added to each well of a 96-well plate, resulting in 8,000 cells per well. […] The test compounds were prepared from a 10 mM stock solution and serially diluted in a five-fold gradient. Similarly, 10 µL of the diluted compound solution was added to each compound-treated well (final DMSO concentration 0.2%).
The cells were incubated in a 37 °C, 5% CO2 incubator for 3 days. After incubation, the reaction solution was prepared according to the MTS assay kit instructions (Promega, G5430), and 20 µL was added to each well. The plate was further incubated at 37 °C with 5% CO2 for 3-4 hours. The absorbance at 490 nm was measured using a microplate reader, and the absorbance at 690 nm was used as the background value. The final raw data were calculated as OD490 - OD690. […] The IC50 values for cell proliferation inhibition were determined using GraphPad Prism 5.0. Each experiment was repeated three times, and three parallel replicates were performed in each experiment to calculate the mean value and standard deviation.
Table 2. Inhibitory Activity of Compounds on Mino Cell Proliferation

[3] = system: MV-4-11 cells; assay: MV-4-11 cell proliferation inhibition (MTS assay); assay type: cell-based; details: Homo sapiens, MV4-11, 168 h, 7 days incubation, MTS, read-out: MV-411 (IC50, Inhibitory Activity of Compounds on MV-4-11 Cell Proliferation)
Method: MV-4-11 cells were cultured in IMDM medium supplemented with 10% fetal bovine serum and collected. The cell concentration was diluted according to a 7-day incubation period, and 180 µL of cell suspension was added to each well of a 96-well plate, resulting in 2,000 cells per well. […] The test compounds were prepared from a 10 mM stock solution and serially diluted in a five-fold gradient, and 20 µL of the diluted compound solution was added to each compound-treated well (final DMSO concentration 0.2%). The cells were incubated in a 37 °C, 5% CO2 incubator for 7 days. After incubation, the reaction solution was prepared according to the MTS assay kit instructions (Promega, G5430), and 20 µL was added to each well. The plate was further incubated at 37 °C with 5% CO2 for 3-4 hours. The absorbance at 490 nm was measured using a microplate reader, and the absorbance at 690 nm was used as the background value. The final raw data were calculated as OD490 - OD690. […] The IC50 values for cell proliferation inhibition were determined using GraphPad Prism 5.0. Each experiment was repeated three times, and three parallel replicates were performed in each experiment to calculate the mean value and standard deviation.
Table 3. Inhibitory Activity of Compounds on MV-4-11 Cell Proliferation

[4] = biological target: CRBN/DDB1 (Homo sapiens, UniProt Q96SW2); assay: CRBN/DDB1 binding TR-FRET assay; details: read-out: AVE_Inhibition% (1 µM)
Sequence of CRBN/DDB1 (Q96SW2 whole entry, species assumed): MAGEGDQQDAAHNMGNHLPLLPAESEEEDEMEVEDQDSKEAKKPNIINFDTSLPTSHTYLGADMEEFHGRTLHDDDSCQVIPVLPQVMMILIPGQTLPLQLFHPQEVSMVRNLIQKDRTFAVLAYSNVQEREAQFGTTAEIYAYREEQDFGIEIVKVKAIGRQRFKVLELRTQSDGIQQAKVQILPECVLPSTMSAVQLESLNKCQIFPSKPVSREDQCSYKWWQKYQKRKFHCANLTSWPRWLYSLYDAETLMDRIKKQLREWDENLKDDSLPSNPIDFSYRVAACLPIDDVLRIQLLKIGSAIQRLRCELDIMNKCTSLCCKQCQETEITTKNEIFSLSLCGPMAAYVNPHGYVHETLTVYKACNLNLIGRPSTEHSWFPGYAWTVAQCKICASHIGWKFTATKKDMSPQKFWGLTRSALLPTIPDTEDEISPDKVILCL
Sequence of CRBN/DDB1 (Q16531 whole entry partner, species assumed): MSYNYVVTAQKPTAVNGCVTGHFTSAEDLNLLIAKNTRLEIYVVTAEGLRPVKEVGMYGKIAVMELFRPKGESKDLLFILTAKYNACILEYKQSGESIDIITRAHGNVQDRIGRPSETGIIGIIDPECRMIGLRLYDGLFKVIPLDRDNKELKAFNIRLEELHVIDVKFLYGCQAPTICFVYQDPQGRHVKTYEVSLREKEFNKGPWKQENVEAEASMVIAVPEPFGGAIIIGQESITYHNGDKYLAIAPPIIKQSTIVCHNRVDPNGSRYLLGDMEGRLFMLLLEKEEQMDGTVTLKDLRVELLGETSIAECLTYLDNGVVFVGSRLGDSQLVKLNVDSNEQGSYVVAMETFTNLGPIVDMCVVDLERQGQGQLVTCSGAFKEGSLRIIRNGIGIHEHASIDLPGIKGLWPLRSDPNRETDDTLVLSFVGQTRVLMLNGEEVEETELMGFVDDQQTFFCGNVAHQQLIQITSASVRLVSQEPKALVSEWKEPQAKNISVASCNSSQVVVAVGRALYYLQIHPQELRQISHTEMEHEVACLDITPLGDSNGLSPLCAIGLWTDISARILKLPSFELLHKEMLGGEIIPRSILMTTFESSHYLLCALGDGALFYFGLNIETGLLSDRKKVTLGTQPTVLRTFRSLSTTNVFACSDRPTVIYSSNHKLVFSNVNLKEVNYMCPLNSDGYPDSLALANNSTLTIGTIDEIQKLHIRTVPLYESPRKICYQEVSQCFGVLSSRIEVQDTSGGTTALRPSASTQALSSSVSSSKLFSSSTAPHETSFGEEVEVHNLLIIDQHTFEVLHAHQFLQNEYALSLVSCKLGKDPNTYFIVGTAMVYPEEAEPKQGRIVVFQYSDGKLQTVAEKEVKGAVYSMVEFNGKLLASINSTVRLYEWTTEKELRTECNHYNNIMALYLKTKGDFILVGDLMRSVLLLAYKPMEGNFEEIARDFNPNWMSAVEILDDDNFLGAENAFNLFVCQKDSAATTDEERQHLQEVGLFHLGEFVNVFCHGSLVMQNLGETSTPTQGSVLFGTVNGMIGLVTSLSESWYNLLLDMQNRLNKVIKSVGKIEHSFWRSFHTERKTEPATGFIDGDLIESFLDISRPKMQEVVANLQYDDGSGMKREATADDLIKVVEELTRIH
Method: • 1. 0.1 µL of the reference solution was added to a 384-well assay plate. The final detection concentration was 100 µM, followed by 3-fold serial dilution for 10 points. • 2. 2.5 µL of CRBN/DDB1 was added to the 384-well plate and centrifuged at 1000 rpm for 1 minute. • 3. 2.5 µL of Thalidomide-BODIPY was added to the plate, centrifuged at 1000 rpm for 1 minute, and incubated at 25 °C for 15 minutes. • 4. 5 µL of His-Tb was added to the plate, centrifuged at 1000 rpm for 1 minute, and incubated at 25 °C for 60 minutes. • 5. The TR-FRET signal was measured using a BMG plate reader with a fluorescence ratio of 520/490 nm.
Table 4. Inhibition Rate of Compounds on CRBN/DDB1 Binding

[5] = cited from earlier work

Compound | pIC50 [1] | pIC50 [2] | pIC50 [3] | inhibition at 1 µM [4] | hydrolysis half-life ([5]; pH 7) | hydrolysis half-life ([5]; pH 7.4) | hydrolysis half-life ([5]; pH 8)
CCn1c2c(OCc3ccc(CN4CCOCC4)cc3)cccc2c(=O)n1C1CCC(=O)NC1=O (stereo not drawn) [Compound D23, 3-(1-Ethyl-7-((4-(morpholinomethyl)benzyl)oxy)-3-oxo-1,3-dihydro-2H-indazol-2-yl)piperidine-2,6-dione] | < 5.00 | < 5.00 | < 4.70 | < 50% |  |  | 
CCn1c2c(OCc3ccc(CN4CCN(c5ccc(C#N)cc5F)CC4)cc3)cccc2c(=O)n1C1CCC(=O)NC1=O (stereo not drawn) [Compound D25] | 5.00 to 6.00 | < 5.00 | 4.70 to 6.00 | < 50% |  |  | 
CC(C)(C)NC(=O)c1ccc2c(=O)n(C3CCC(=O)NC3=O)[nH]c2c1 (stereo not drawn) [Compound D40, N-(tert-butyl)-2-(2,6-dioxopiperidin-3-yl)-3-oxo-2,3-dihydro-1H-indazole-6-carboxamide] | < 5.00 | < 5.00 | < 4.70 | < 50% |  |  | 
O=C1CC[C@H](n2[nH]c3cc(CNC(=O)C(F)(F)c4ccc(Cl)cc4)ccc3c2=O)C(=O)N1 [Compound D44, (S)-2-(4-chlorophenyl)-N-((2-(2,6-dioxopiperidin-3-yl)-3-oxo-2,3-dihydro-1H-indazol-6-yl)methyl)-2,2-difluoroacetamide] | < 5.00 | < 5.00 | 4.70 to 6.00 | < 50% |  |  | 
O=C1CCC(n2[nH]c3cc(C(=O)NCc4ccccc4)ccc3c2=O)C(=O)N1 (stereo not drawn) [Compound D46, N-Benzyl-2-(2,6-dioxopiperidin-3-yl)-3-oxo-2,3-dihydro-1H-indazol-6-carboxamide] | < 5.00 | < 5.00 | < 4.70 | < 50% |  |  | 
CCc1ccc([C@H](C)NC(=O)c2ccc3c(=O)n(C4CCC(=O)NC4=O)[nH]c3c2)cc1 (stereo partly drawn) [Compound D47, 2-(2,6-Dioxopiperidin-3-yl)-N-((S)-1-(4-ethylphenyl)ethyl)-3-oxo-2,3-dihydro-1H-indazol-6-carboxamide] | 6.00 to 6.70 | > 6.70 | 6.00 to 6.70 | < 50% |  |  | 
O=C1CCC(N2C(=O)c3ccccc3C2=O)C(=O)N1 (stereo not drawn) [thalidomide] |  |  |  |  | about 11 hours | ~5 h | ~1.25 h
